From patent US8420648B2, “Polymorphs of brimonidine pamoate” (Bausch & Lomb Incorporated, priority 2008, dated 2013)
Read-outs that look alike come from different tables or passages of the source.

Key:
[1] = for XRPD pattern of the solids following moisture sorption analysis: after moisture sorption analysis; for hygroscopicity (in words) / observation upon desorption: moisture sorption analysis; for observation upon desorption: desorption scan; for water adsorbed at 60% RH / water adsorbed at 90% RH: 25° C.
Experimental: Approximately 10 mg of the sample was analyzed in a Pyrex bulb. Each scan utilized a step size of 10% RH and a maximum equilibration time of four hours per point. The sample was dried for one hour at 80° C. following the desorption scan to obtain the dry sample weight and then it was analyzed by XRPD.

[2] = ambient
Source text: Following one week intervals, samples were isolated by centrifugation and dried in vacuo at ambient temperature overnight and analyzed by XRPD to check for polymorphic form conversion.

[3] = Competitive slurries of brimonidine hemi-pamoate forms; format: physicochemical; conditions: for XRPD (1 week): form: competitive slurry of Forms A, RT; for relative stability (conclusion from competitive slurries): competitive slurries in THF or water, one week
[4] = Experimental: After one week of exposure, the samples were analyzed by XRPD to check for form conversion and HPLC analysis to check for potential degradation. […] Ambient • Detection: 248 nm • Diluent: MeOH • Injection Volume: 5 μl
[5] = 88% RH; for Visual inspection (2 week): 2 weeks, inspected for deliquescence
Experimental: This solution results in 88% RH environment. After two weeks of storage the crystalline form was determined by XRPD and solid inspected for deliquescence.

[6] = ambient conditions
[7] = cited from earlier work
[8] = stored uncapped at 60° C., 1 week
[9] = 60° C., sample exposed for 6 days (footnote)

| Compound | XRPD pattern of the solids following moisture sorption analysis [1] | hygroscopicity (in words) [1] | observation upon desorption [1] | water adsorbed at 60% RH ([1]; moisture sorption) | water adsorbed at 90% RH ([1]; moisture sorption) | XRPD (1 week): form ([3]; B, C and D in THF (1.0 mL)) | XRPD (1 week): form ([3]; C, D and E in water (1.0 mL)) | solid state stability after one week of storage at 60° C. (in words, HPLC and XRPD) ([4]; 60° C., one week) | HPLC (% purity) after thermal stress [4, 8] | XRPD (1 week): crystallinity [4, 8] | XRPD (1 week): form [4, 8] | Visual inspection (2 week) [5] | form by XRPD after overnight slurry in water [6] | other results |
| --- | --- | --- | --- | --- | --- | --- | --- | --- | --- | --- | --- | --- | --- | --- |
| Brc1c(NC2=NCCN2)ccc2nccnc12.Brc1c(NC2=NCCN2)ccc2nccnc12.O=C(O)c1cc2ccccc2c(Cc2c(O)c(C(=O)O)cc3ccccc23)c1O [Form A, brimonidine hemi-pamoate] | consistent with the Form A starting material | slightly hygroscopic | no hysteresis or indication of hydrate formation | 2.2 wt % | 2.5 wt % | Form E | Form F | stable by XRPD and HPLC | 100.0% | Crystalline | (Form A) | No deli- | Form B | Form by XRPD (1 week) ([2]; slurry in THF 1 mL, 1 week): Form E; Form by XRPD (3 weeks) ([2]; slurry in water (magnetic stirring) 1 mL, 3 weeks): Form B; stability after two weeks of storage at elevated relative humidity (in words) [5]: no sign of deliquescence or change in crystalline form |
| Brc1c(NC2=NCCN2)ccc2nccnc12.Brc1c(NC2=NCCN2)ccc2nccnc12.O=C(O)c1cc2ccccc2c(Cc2c(O)c(C(=O)O)cc3ccccc23)c1O [Form B, brimonidine hemi-pamoate] | consistent with Form B | – | – | 5.4 wt % | 5.8 wt % | Form E | – | – | 100.0% | Crystalline | (Form B) | – | – | water content stabilized between 20-90% RH [1]: 5-6 wt %; solid state stability after one week of storage at 60° C. (in words, HPLC and XRPD) [4]: no degradation or signs of form conversion |
| Brc1c(NC2=NCCN2)ccc2nccnc12.Brc1c(NC2=NCCN2)ccc2nccnc12.O=C(O)c1cc2ccccc2c(Cc2c(O)c(C(=O)O)cc3ccccc23)c1O [Form C, brimonidine hemi-pamoate] | consistent with Form C | moderately hygroscopic | no hysteresis or indication of hydrate formation | 4.6 wt % | 13.0 wt % | Form E | Form F | no significant degradation or signs of form conversion | 97.9% | Semi-cryst. | (Form C) | No deli- | mixture of Forms B and F | – |
| Brc1c(NC2=NCCN2)ccc2nccnc12.Brc1c(NC2=NCCN2)ccc2nccnc12.O=C(O)c1cc2ccccc2c(Cc2c(O)c(C(=O)O)cc3ccccc23)c1O [Form D, brimonidine hemi-pamoate] | consistent with Form D | slightly hygroscopic | no hysteresis or indication of hydrate formation | 1.8 wt % | 2.6 wt % | Form E | Form F | no significant degradation or signs of form conversion | 96.7% | Crystalline | (Form D) | – | mixture of Forms B and F | – |
| Brc1c(NC2=NCCN2)ccc2nccnc12.Brc1c(NC2=NCCN2)ccc2nccnc12.O=C(O)c1cc2ccccc2c(Cc2c(O)c(C(=O)O)cc3ccccc23)c1O [Form E, brimonidine hemi-pamoate] | consistent with Form E | slightly hygroscopic | no hysteresis or indication of hydrate formation | 3.1 wt % | 4.2 wt % | – | Form F | no significant degradation or signs of form conversion | – | – | – | – | mixture of Forms B and F | relative stability (conclusion from competitive slurries) [3]: most stable anhydrate form; HPLC (% purity) after thermal stress [4, 9]: 100.0%; XRPD (1 week): crystallinity [4, 9]: Semi-cryst.; XRPD (1 week): form [4, 9]: (Form E) |
| Brc1c(NC2=NCCN2)ccc2nccnc12.Brc1c(NC2=NCCN2)ccc2nccnc12.O=C(O)c1cc2ccccc2c(Cc2c(O)c(C(=O)O)cc3ccccc23)c1O [Form F, brimonidine hemi-pamoate] | consistent with Form F | – | – | – | – | – | – | – | – | – | – | No deli- | mixture of Forms B and F | water adsorbed at 40% RH ([1]; moisture sorption, 40% RH): approximately 1.8 molar equivalent; relative stability (conclusion from competitive slurries) [3]: more stable in water than Forms A, C, D and E; stability after two weeks of storage at elevated relative humidity (in words) [5]: no sign of deliquescence or change in crystalline form |
| Brc1c(NC2=NCCN2)ccc2nccnc12 [brimonidine freebase, 5-bromo-6-(2-imidazolidinylideneamino)quinoxaline] | – | – | – | – | – | – | – | – | – | – | – | – | – | solubility in water (in words) ([7]; water): negligible |
| brimonidine tartrate | – | – | – | – | – | – | – | – | – | – | – | – | – | solubility in a pH 7.0 phosphate buffer ([7]; pH 7.0 phosphate buffer): 2.4 mg/mL; solubility in water ([7]; water): 34 mg/mL |
